For series [1], the system named is Oryctolagus cuniculus. Put plainly: Compound was evaluated in vivo in normotensive rabbits (23.5+/-2.6 mmHg) for the intraocular pressure (IOP) lowering 90 min after topical administration with one drop of Carbonic hydrase inhibitor at a pH 7.5. The class given is functional, Eye.
The target in the next series is Carbonic anhydrase 4 (Homo sapiens, UniProt P22748).
The test system of series [2] is Oryctolagus cuniculus. Put plainly: Compound was evaluated in vivo in normotensive rabbits (23.5+/-2.6 mmHg) for the intraocular pressure (IOP) lowering 30 min after topical administration with one drop of Carbonic anhydrase inhibitor at a pH 7.0. The format is functional, Eye.
For series [3], the system named is Oryctolagus cuniculus. The series is described as follows: In vivo activity in normotensive rabbits (23.5+/-2.6 mmHg) for the intraocular pressure (IOP) lowering 30 min after topical administration with one drop of Carbonic anhydrase inhibitor at a pH 7.0. The format is functional, Eye.
Series [4] deals with Oryctolagus cuniculus. Put plainly: Compound was evaluated in vivo in normotensive rabbits (23.5+/-2.6 mmHg) for the intraocular pressure (IOP) lowering 90 min after topical administration with one drop of Carbonic anhydrase inhibitor at a pH 7. The format is functional, Eye.
Series [5] concerns Oryctolagus cuniculus. The series is described as follows: In vivo activity in normotensive rabbits (23.5+/-2.6 mmHg) for the intraocular pressure (IOP) lowering 60 min after topical administration with one drop of Carbonic anhydrase inhibitor at a pH 7.0. The format is functional, Eye.
For a further series, the target named is Carbonic anhydrase 1 (Homo sapiens, UniProt P00915).
Sequence of Carbonic anhydrase 1 (P00915 whole entry): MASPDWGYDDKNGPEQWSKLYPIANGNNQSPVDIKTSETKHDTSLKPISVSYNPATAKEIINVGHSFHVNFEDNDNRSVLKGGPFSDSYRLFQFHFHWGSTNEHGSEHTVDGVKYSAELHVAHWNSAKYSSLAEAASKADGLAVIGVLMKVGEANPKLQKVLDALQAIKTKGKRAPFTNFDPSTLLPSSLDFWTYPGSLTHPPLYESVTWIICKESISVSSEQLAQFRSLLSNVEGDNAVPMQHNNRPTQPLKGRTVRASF
Series [6] has as its system Oryctolagus cuniculus. Put plainly: In vivo activity in glaucomatous rabbits (33.5+/-3.0 mmHg) for the intraocular pressure (IOP) lowering 30 min after topical administration with one drop of Carbonic anhydrase at a pH 7.0. The class given is functional, Eye.
Series [7] relates to Oryctolagus cuniculus. Put plainly: In vivo activity in normotensive rabbits (23.5+/-2.6 mmHg) for the intraocular pressure (IOP) lowering 30 min after topical administration with one drop of Carbonic anhydrase inhibitor at a pH 7. The class given is functional, Eye.
The test system of series [8] is Oryctolagus cuniculus. The series is described as follows: In vivo activity in normotensive rabbits (23.5+/-2.6 mmHg) for the intraocular pressure (IOP) lowering 90 min after topical administration with one drop of Carbonic anhydrase inhibitor at a pH 7. The class given is functional, Eye.
In series [9] the test system is Oryctolagus cuniculus. The series is described as follows: In vivo activity in glaucomatous rabbits (33.5+/-3.0 mmHg) for the intraocular pressure (IOP) lowering 90 min after topical administration with one drop of Carbonic anhydrase at a pH 7.0. The format is functional, Eye.
The conditions of series [10]: octanol/water.
Test in series [11]: not given
This is another data set of the same source.

Series [12] deals with Oryctolagus cuniculus. The series is described as follows: In vivo activity in normotensive rabbits (23.5+/-2.6 mmHg) for the intraocular pressure (IOP) lowering 60 min after topical administration with one drop of Carbonic anhydrase inhibitor at a pH 7. The class given is functional, Eye.
Series [13] relates to Oryctolagus cuniculus. Put plainly: In vivo activity in normotensive rabbits (23.5+/-2.6 mmHg) for the intraocular pressure (IOP) lowering 30 min after topical administration with one drop of Carbonic anhydrase inhibitor at a pH 7.4. The class given is functional, Eye.
Series [14] concerns Oryctolagus cuniculus. The series is described as follows: In vivo activity in normotensive rabbits (23.5+/-2.6 mmHg) for the intraocular pressure (IOP) lowering 90 min after topical administration with one drop of Carbonic anhydrase inhibitor at a pH 7.4. The format is functional, Eye.
The test system of series [15] is Oryctolagus cuniculus. The series is described as follows: In vivo activity in normotensive rabbits (23.5+/-2.6 mmHg) for the intraocular pressure (IOP) lowering 60 min after topical administration with one drop of Carbonic anhydrase inhibitor at a pH 7.4. The format is functional, Eye.

Sequence of Carbonic anhydrase 4 (P22748 whole entry): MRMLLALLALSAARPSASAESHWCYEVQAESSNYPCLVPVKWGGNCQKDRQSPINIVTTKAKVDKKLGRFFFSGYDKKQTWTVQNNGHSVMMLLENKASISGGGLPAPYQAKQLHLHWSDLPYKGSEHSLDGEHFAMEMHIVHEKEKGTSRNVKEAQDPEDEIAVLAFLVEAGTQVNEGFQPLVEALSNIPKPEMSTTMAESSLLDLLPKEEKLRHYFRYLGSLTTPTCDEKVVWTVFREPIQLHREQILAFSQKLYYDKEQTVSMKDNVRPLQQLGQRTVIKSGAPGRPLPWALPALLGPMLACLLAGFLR

What is called Ki is a measure of affinity in units of concentration, obtained from inhibition or displacement. The low end stands for higher affinity, the high end for lower affinity. As for `NS(=O)(=O)c1nnc(NC(=O)CN(CCN(CCN(CC(=O)O)CC(=O)Nc2nnc(S(N)(=O)=O)s2)CC(=O)[O-])CC(=O)[O-])s1.[Zn+2]`, the “Change in IOP” value in the series with Oryctolagus cuniculus [1] was 9.5 mmHg; with Oryctolagus cuniculus [2] it was 7.4 mmHg. This compound showed a Ki on Carbonic anhydrase 4 of 4 nM.
Consider `NS(=O)(=O)c1ccc(NC(=O)CN(CCN(CCN(CC(=O)O)CC(=O)O)CC(=O)O)CC(=O)O)cc1`, for which the entries for the “Change in IOP” value with Oryctolagus cuniculus [3], in the series on Oryctolagus cuniculus [4] and in the series with Oryctolagus cuniculus [5] were 3.1 mmHg, 7.2 mmHg and 4.5 mmHg, respectively. In addition, the Ki at Carbonic anhydrase 4 amounted to 180 nM; on Carbonic anhydrase 1 it was 4100 nM.
A word on the logD: it is the decadic logarithm of the distribution of all forms, ionised or not, between an organic phase and buffer at a given pH. Higher therefore signals higher lipophilicity. `NS(=O)(=O)c1ccc(NC(=O)CN(CCN(CCN(CC(=O)O)CC(=O)Nc2ccc(S(N)(=O)=O)cc2)CC(=O)O)CC(=O)O)cc1`: the Kin was found to be 6.5 h⁻¹. In addition, the “Change in IOP” value in the series on Oryctolagus cuniculus [6] was 6 mmHg. For the same compound, the “Change in IOP” value in the series on Oryctolagus cuniculus [7] worked out at 4.4 mmHg. Moreover, the “Change in IOP” value in the series on Oryctolagus cuniculus [8] was determined as 9.5 mmHg. Also, in the series with Oryctolagus cuniculus [9], the “Change in IOP” value was found to be 11 mmHg. The compound further returned a logD in series [10] of 1.456. The compound also gave a Ki at Carbonic anhydrase 4 of 156 nM. For the same compound, the Kin in series [11] was determined as 3.6 h⁻¹. Besides, in the series on Oryctolagus cuniculus [12], the “Change in IOP” value is listed as 7.5 mmHg.
Regarding `NS(=O)(=O)c1nnc(NC(=O)CN(CCN(CCN(CC(=O)O)CC(=O)O)CC(=O)O)CC(=O)O)s1`, the Kin was 8.1 h⁻¹. In addition, the “Change in IOP” value in the series with Oryctolagus cuniculus [13] was 3.1 mmHg. This compound also came in with a Ki on Carbonic anhydrase 4 of 28 nM. Further, the “Change in IOP” value in the series with Oryctolagus cuniculus [14] is listed as 4.5 mmHg. In series [11], this compound came in with a Kin of 4.3 h⁻¹. On Carbonic anhydrase 1, affinity was put at a Ki of 55 nM. For the same compound, in the series with Oryctolagus cuniculus [15], the “Change in IOP” value stood at 6.8 mmHg.
Take `NS(=O)(=O)c1nnc(NC(=O)CN(CCN(CCN(CC(=O)O)CC(=O)Nc2nnc(S(N)(=O)=O)s2)CC(=O)O)CC(=O)O)s1`: the Kin turned out to be 6.2 h⁻¹. The compound further showed a logD in [10] of 1.961. Besides, the affinity at Carbonic anhydrase 4 corresponds to a Ki of 7 nM. In series [11], this compound had a Kin of 3.9 h⁻¹.
In the case of `NS(=O)(=O)c1cccc(NC(=O)CN(CCN(CCN(CC(=O)O)CC(=O)O)CC(=O)O)CC(=O)O)c1`, the Ki is 500 nM at Carbonic anhydrase 4 and 7200 nM at Carbonic anhydrase 1.
On the same counts, the results for `NS(=O)(=O)c1nnc(NC(=O)CCNC(=O)CN(CCN(CCN(CC(=O)O)CC(=O)O)CC(=O)O)CC(=O)O)s1` are 16 nM and 110 nM.
As to `NS(=O)(=O)c1nnc(NC(=O)CCNC(=O)CN(CCN(CCN(CC(=O)O)CC(=O)NCCC(=O)Nc2nnc(S(N)(=O)=O)s2)CC(=O)O)CC(=O)O)s1`, the values for the Ki on Carbonic anhydrase 4 and on Carbonic anhydrase 1 were 8 nM and 102 nM, respectively.
Taken in the same sequence, the figures for `NS(=O)(=O)c1nc2ccc(OC(=O)CN(CCN(CCN(CC(=O)O)CC(=O)O)CC(=O)O)CC(=O)O)cc2s1` were 6 nM and 32 nM.
On the same counts, the results for `NS(=O)(=O)c1ccc(COC(=O)CN(CCN(CCN(CC(=O)O)CC(=O)OCc2ccc(S(N)(=O)=O)cc2)CC(=O)O)CC(=O)O)cc1` are 170 nM and 325 nM.
On the same counts, the results for `NS(=O)(=O)c1ccc(CNC(=O)CN(CCN(CCN(CC(=O)O)CC(=O)O)CC(=O)O)CC(=O)O)cc1` are 40 nM and 550 nM.
In the case of `NS(=O)(=O)c1ccc(NNC(=O)CN(CCN(CCN(CC(=O)O)CC(=O)NNc2ccc(S(N)(=O)=O)cc2)CC(=O)O)CC(=O)O)cc1`, the figures for the Ki at Carbonic anhydrase 4 and at Carbonic anhydrase 1 were 430 nM and 9800 nM, respectively.

The values are drawn from ChEMBL document CHEMBL1134204, “Carbonic anhydrase inhibitors: synthesis of sulfonamides incorporating dtpa tails and of their zinc complexes with powerful topical antiglaucoma properties” (Bioorg Med Chem Lett, 2001).
